Laboratory results from patent US20040039060A1, “Inhibitor for enzyme having two divalent metal ions as active centers” (priority 2000, published 2004).
Where two headings read alike, the source gives them in different places.

Legend:
[1] = UV spectrum measurement with stepwise addition of Mg2+ solution (chelate formation); type: physicochemical; conditions: compound 0.05 mmol/l, Mg2+ 0 to 3.6 mol/l, 240 nm to 500 nm, cell length 1 cm
Experimental: Compounds C-1, D-2, D-5 and D-6 were employed to determine UV spectra with treating dropwise with metal solutions.
The UV spectrum measurement was conducted with the cell length of 1 cm at a wavelength of 240 nm to 500 nm. Each test solution was obtained by preparing Solutions A^1, A2, B and C as shown below, adding an indicated volume of Solution A^1 or A2 to 1 ml of Solution B, making the total, volume 10 ml with Solution C. The concentrations of Compounds C-1, D-2, D-5 and D-6 in test solutions here were all adjusted at 0.05 mmol/l, and the concentrations of Mg^2+ were as indicated in Table 5.
Solution A1: MgCl2 4 mol/l, MOPS 50 mmol/l, NaOH 23.6 mmol/l, Solvent: Water
Solution A2: MgCl2 1 mol/l, MOPS 50 mmol/l, NaOH 23.6 mmol/l, Solvent: Water
Solution B: Compound 1 0.5 mmol/l, Solvent: DMSO
Solution C: NaCl 3 mol/l, MOPS 50 mmol/l, 23.6 mmol/l, Solvent: Water
For the purpose of indicating the change in the UV spectrum as a result of the increase in the metal ion concentration, one figure contained each UV spectrum curve at various metal ion concentrations.

HIV-1 integrase = HIV-1 integrase (Human immunodeficiency virus type 1 group M subtype B, UniProt P04585); test: HIV-1 integrase inhibition assay (microtiter plate, immobilised substrate DNA, Dig-labelled target DNA, OD 405 nm); type: biochemical
Experimental: Substrate DNA and target DNA, which sequences were indicated below, were synthesized by Amersham Pharmacia Biotech and dissolved in KTE buffer (composition: 100 mM KCl, 1 mM EDTA, 10 mM Tris-HCl (pH 7.6)) at concentration of 2 pmol/μl and 5 pmol/μl, respectively. The DNA solutions were annealed with each complement by slowly cooling after heating.
Streptavidin, obtained from Vector Laboratories, was dissolved in 0.1 M carbonate buffer (composition: 90 mM Na2CO3, 10 mM NaHCO3) at concentration of 40 μg/ml. After coating each well of microtiter plates (obtained from NUNC) with 50 μl of the above solution at 4° C. overnight, each well was washed twice with PBS (composition: 13.7 mM NaCl, 0.27 mM KCl, 0.43 mM Na2HPO4, 0.14 mM KH2PO4) and blocked with 300 μl of 1% skim milk in PBS for 30 min. Additionally, each well was washed twice with PBS and added 50 μl of substrate DNA solution (2 pmol/μl). The microtiter plates were kept at room temperature for 30 min. Then, each well was washed twice with PBS and once with H2O.
Subsequently, in the each well prepared above were added 45 μl of the reaction buffer prepared from 12 μl of the buffer (composition: 150 mM MOPS (pH 7.2), 75 mM MnCl2, 50 mM 2-mercaptoethanol, 25% glycerol, 500 μg/ml bovine serum albumin-fraction V), 1 μl of target DNA (5 pmol/μl), and 32 μl of the distilled water. Additionally, 6 μl of either a test compound in DMSO or DMSO for positive control(PC) was mixed with the above reaction buffer, then 9 μl of an integrase solution (30 pmol) was added and mixed well. In the well of negative control (NC) was added 9 μl of the integrase dilution buffer (composition: 20 mM MOPS (pH7.2), 400 mM potassium glutamate, 1 mM EDTA, 0.1% NP-40, 20% glycerol, 1 mM DTT, 4M urea).
The microtiter plates were incubated at 30° C. for 1 hour. The reaction solution was removed and each well was washed twice with PBS. Subsequently, each well of the microtiter plates was filled with 100 μl of anti-digoxigenin antibody labeled with alkaline phosphatase (Sheep Fab fragment: obtained from Boehringer) and incubated at 30° C. for 1 hour. Then, each well was washed twice with 0.05% Tween20 in PBS and once with PBS. Next, 150 μl of the Alkaline phosphatase reaction buffer (composition: 10 mM p-Nitrophenylphosphate (obtained from Vector Laboratories), 5 mM MgCl2, 100 mM NaCl, 100 mM Tris-HCl (pH 9.5)) was added in each well. […] The optical density (OD) at 405 nm of each well was measured and the percent inhibition was determined by the following expression.
The percent inhibition (%)=100[1-{(C abs.−NC abs.)/(PC abs.−NC abs.)}]
When the percent inhibition (%) is X % at the concentration of x μg/ml and the percent inhibition (%) is Y % at the concentration of y μg/ml, one of which is more than 50% and the other is less than 50%, IC50 can be determined by the following expression.
IC50(μg/ml)=x-{(X-50)(x-y)/(X-Y)}
Compound No. in the Table 1 is the same as compound No. of the above example.

[2] = UV spectrum measurement with monovalent ions Na+ and K+; type: physicochemical
[3] = concentration of the compound at percent inhibition 50%, MnCl2 buffer, 30° C., 1 hour

Structure (SMILES)	change in the UV spectrum curve as the metal ion concentration was increased [1]	IC50 (HIV-1 integrase; [3])	change in the UV spectrum curve [2]	IC50 (HIV-1 integrase)
O=C(O)/C=C/c1cc(CCc2ccccc2)ncn1 [Compound D-2]	no change	>100 µg/mL		
O=C(O)/C(O)=C/c1cc(CCc2ccccc2)ncn1 [Compound C-1]	2-step change		almost no change	5.55 µM
O=C(O)C(O)=Cc1ccnc(CCc2ccccc2)c1 [Compound D-5]	1-step change	>100 µg/mL		
OC(=Cc1cc(CCc2ccccc2)ncn1)c1ccccc1 [Compound D-6]	1-step change			> 331 µM
